Source: patent US8129398B2 (priority 2008, dated 2012)

The compounds below were run against T1, HIV-integrase (Human immunodeficiency virus type 1 group M subtype B, UniProt P12497) (assay: HIV-Integrase Inhibition Activity (SPA bead integration assay with P33 labeled target DNA)). Conditions: recombinant integrase, class symbols; read-out: in vitro activity.
T1 construct: Recombinant integrase (0.26 ng) was incubated with the beads
Type: biochemical
Method in brief: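 Strand integration read as bead-proximity CPM after P33 target DNA (0.1 fmol) and inhibitor were added to washed integrase–substrate DNA complexes on SPA beads. Enzyme bound 90 min at 37° C; EDTA (10 mM final) terminated reaction; IC50 graded A/B/C.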
`CO[C@H]1C[C@@H](C(=O)NC23CCC(CC2)Cn2c3nc(C(=O)NCc3ccc(F)cc3)c(O)c2=O)N(S(C)(=O)=O)C1` [Example 272, 7,10-Ethanopyrimido[1,2-a]azepine-2-carboxamide, N-[(4-fluorophenyl)methyl]-4,6,7,8,9,10-hexahydro-3-hydroxy-10-[[[(2S,4S)-4-methoxy-1-(methylsulfonyl)-2-pyrrolidinyl]carbonyl]amino]-4-oxo-] showed an IC50 of under 10 nM.
Work on `CO[C@@H]1C[C@@H](C(=O)NC23CCC(CC2)Cn2c3nc(C(=O)NCc3ccc(F)cc3)c(O)c2=O)N(C(C)=O)C1` [Example 273, 7,10-Ethanopyrimido[1,2-a]azepine-2-carboxamide, 10-[[[(2S,4R)-1-acetyl-4-methoxy-2-pyrrolidinyl]carbonyl]amino]-N-[(4-fluorophenyl)methyl]-4,6,7,8,9,10-hexahydro-3-hydroxy-4-oxo-] yielded an IC50 of under 10 nM.
In the case of `CO[C@@H]1C[C@@H](C(=O)NC23CCC(CC2)Cn2c3nc(C(=O)NCc3ccc(F)cc3)c(O)c2=O)N(S(C)(=O)=O)C1` [Example 274, 7,10-Ethanopyrimido[1,2-a]azepine-2-carboxamide, N-[(4-fluorophenyl)methyl]-4,6,7,8,9,10-hexahydro-3-hydroxy-10-[[[(2S,4R)-4-methoxy-1-(methylsulfonyl)-2-pyrrolidinyl]carbonyl]amino]-4-oxo-], the IC50 is reported as under 10 nM.
For `Cc1cc(CNC(=O)c2nc3n(c(=O)c2O)CC2CCC3(NC(=O)[C@@H]3CCN3S(C)(=O)=O)CC2)ccc1F` [Example 276, 7,10-Ethanopyrimido[1,2-a]azepine-2-carboxamide, N-[(4-fluoro-3-methylphenyl)methyl]-4,6,7,8,9,10-hexahydro-3-hydroxy-10-[[[(2S)-1-(methylsulfonyl)-2-azetidinyl]carbonyl]amino]-4-oxo-], the IC50 was under 10 nM.
`C=C[C@@H]1C[C@]1(NC(C)=O)C(=O)NC12CCC(CC1)Cn1c2nc(C(=O)NCc2ccc(F)cc2)c(O)c1=O` [Example 277, 7,10-Ethanopyrimido[1,2-a]azepine-2-carboxamide, 10-[[[(1R,2S)-1-(acetylamino)-2-ethenylcyclopropyl]carbonyl]amino]-N-[(4-fluorophenyl)methyl]-4,6,7,8,9,10-hexahydro-3-hydroxy-4-oxo-] gave an IC50 of 10 to 100 nM.
In the case of `C=C[C@@H]1C[C@]1(NS(C)(=O)=O)C(=O)NC12CCC(CC1)Cn1c2nc(C(=O)NCc2ccc(F)cc2)c(O)c1=O` [Example 278, 7,10-Ethanopyrimido[1,2-a]azepine-2-carboxamide, 10-[[[(1R,2S)-2-ethenyl-1-[(methylsulfonyl)amino]cyclopropyl]carbonyl]amino]-N-[(4-fluorophenyl)methyl]-4,6,7,8,9,10-hexahydro-3-hydroxy-4-oxo-], the IC50 is reported as under 10 nM.
`CO[C@H]1C[C@@H](C(=O)NC23CCC(CC2)Cn2c3nc(C(=O)NCc3ccc(F)c(C)c3)c(O)c2=O)N(C(=O)c2cccn2C)C1` [Example 279, 7,10-Ethanopyrimido[1,2-a]azepine-2-carboxamide, N-[(4-fluoro-3-methylphenyl)methyl]-4,6,7,8,9,10-hexahydro-3-hydroxy-10-[[[(2S,4S)-4-methoxy-1-[(1-methyl-1H-pyrrol-2-yl)carbonyl]-2-pyrrolidinyl]carbonyl]amino]-4-oxo-] was tested, and the IC50 was under 10 nM.
Work on `CO[C@H]1C[C@@H](C(=O)NC23CCC(CC2)Cn2c3nc(C(=O)NCc3ccc(F)c(C)c3)c(O)c2=O)N(C(=O)c2ccno2)C1` [Example 280, 7,10-Ethanopyrimido[1,2-a]azepine-2-carboxamide, N-[(4-fluoro-3-methylphenyl)methyl]-4,6,7,8,9,10-hexahydro-3-hydroxy-10-[[[(2S,4S)-1-(5-isoxazolylcarbonyl)-4-methoxy-2-pyrrolidinyl]carbonyl]amino]-4-oxo-] yielded an IC50 of under 10 nM.
`Cc1cc(CNC(=O)c2nc3n(c(=O)c2O)CC2CCC3(NC(=O)C(C)(C)n3cccn3)CC2)ccc1F` [Example 281, 7,10-Ethanopyrimido[1,2-a]azepine-2-carboxamide, N-[(4-fluoro-3-methylphenyl)methyl]-4,6,7,8,9,10-hexahydro-3-hydroxy-10-[[2-methyl-1-oxo-2-(1H-pyrazol-1-yl)propyl]amino]-4-oxo-] showed an IC50 of under 10 nM.
For `CC(=O)N1CC[C@H](C(=O)NC23CCC(CC2)Cn2c3nc(C(=O)NCc3ccc(F)c(C)c3)c(O)c2=O)C1` [Example 282, 7,10-Ethanopyrimido[1,2-a]azepine-2-carboxamide, 10-[[[(3S)-1-acetyl-3-pyrrolidinyl]carbonyl]amino]-N-[(4-fluoro-3-methylphenyl)methyl]-4,6,7,8,9,10-hexahydro-3-hydroxy-4-oxo-], the IC50 was under 10 nM.
`Cc1cc(CNC(=O)c2nc3n(c(=O)c2O)CC2CCC3(NC(=O)[C@H]3CCN(S(C)(=O)=O)C3)CC2)ccc1F` [Example 283, 7,10-Ethanopyrimido[1,2-a]azepine-2-carboxamide, N-[(4-fluoro-3-methylphenyl)methyl]-4,6,7,8,9,10-hexahydro-3-hydroxy-10-[[[(3S)-1-(methylsulfonyl)-3-pyrrolidinyl]carbonyl]amino]-4-oxo-] was tested, and the IC50 was under 10 nM.
`COC(=O)c1cn(C(C)(C)C(=O)NC23CCC(CC2)Cn2c3nc(C(=O)NCc3ccc(F)c(C)c3)c(O)c2=O)nn1` [Example 284, 1H-1,2,3-Triazole-4-carboxylic acid, 1-[2-[[2-[[[(4-fluoro-3-methylphenyl)methyl]amino]carbonyl]-6,7,8,9-tetrahydro-3-hydroxy-4-oxo-7,10-ethanopyrimido[1,2-a]azepin-10(4H)-yl]amino]-1,1-dimethyl-2-oxoethyl]-, methyl ester] was tested, and the IC50 was under 10 nM.
`Cc1cc(CNC(=O)c2nc3n(c(=O)c2O)CC2CCC3(NC(=O)C(C)(C)n3cc(C(=O)O)nn3)CC2)ccc1F` [Example 285, 1H-1,2,3-Triazole-4-carboxylic acid, 1-[2-[[2-[[[(4-fluoro-3-methylphenyl)methyl]amino]carbonyl]-6,7,8,9-tetrahydro-3-hydroxy-4-oxo-7,10-ethanopyrimido[1,2-a]azepin-10(4H)-yl]amino]-1,1-dimethyl-2-oxoethyl]-] was tested, and the IC50 was under 10 nM.
`CNC(=O)c1cn(C(C)(C)C(=O)NC23CCC(CC2)Cn2c3nc(C(=O)NCc3ccc(F)c(C)c3)c(O)c2=O)nn1` [Example 286, 7,10-Ethanopyrimido[1,2-a]azepine-2-carboxamide, N-[(4-fluoro-3-methylphenyl)methyl]-4,6,7,8,9,10-hexahydro-3-hydroxy-10-[[2-methyl-2-[4-[(methylamino)carbonyl]-1H-1,2,3-triazol-1-yl]-1-oxopropyl]amino]-4-oxo-] was tested, and the IC50 was under 10 nM.
`Cc1cc(CNC(=O)c2nc3n(c(=O)c2O)CC2CCC3(NC(=O)C(C)(C)n3cc(C(=O)N(C)C)nn3)CC2)ccc1F` [Example 287, 7,10-Ethanopyrimido[1,2-a]azepine-2-carboxamide, 10-[[2-[4-[(dimethylamino)carbonyl]-1H-1,2,3-triazol-1-yl]-2-methyl-1-oxopropyl]amino]-N-[(4-fluoro-3-methylphenyl)methyl]-4,6,7,8,9,10-hexahydro-3-hydroxy-4-oxo-] gave an IC50 of under 10 nM.
`Cc1cc(CNC(=O)c2nc3n(c(=O)c2O)CC2CCC3(NC(=O)C(C)(C)n3cc(C(=O)N4CCN(C)CC4)nn3)CC2)ccc1F` [Example 288, 7,10-Ethanopyrimido[1,2-a]azepine-2-carboxamide, N-[(4-fluoro-3-methylphenyl)methyl]-4,6,7,8,9,10-hexahydro-3-hydroxy-10-[[2-methyl-2-[4-[(4-methyl-1-piperazinyl)carbonyl]-1H-1,2,3-triazol-1-yl]-1-oxopropyl]amino]-4-oxo-] showed an IC50 of under 10 nM.
`CC(=O)N1CC(F)(F)C[C@H]1C(=O)NC12CCC(CC1)Cn1c2nc(C(=O)NCc2ccc(F)c(C)c2)c(O)c1=O` [Example 289, 7,10-Ethanopyrimido[1,2-a]azepine-2-carboxamide, 10-[[[(2S)-1-acetyl-4,4-difluoro-2-pyrrolidinyl]carbonyl]amino]-N-[(4-fluoro-3-methylphenyl)methyl]-4,6,7,8,9,10-hexahydro-3-hydroxy-4-oxo-] showed an IC50 of under 10 nM.
With `Cc1cc(CNC(=O)c2nc3n(c(=O)c2O)CC2CCC3(NC(=O)[C@@H]3CC(F)(F)CN3S(C)(=O)=O)CC2)ccc1F` [Example 290, 7,10-Ethanopyrimido[1,2-a]azepine-2-carboxamide, 10-[[[(2S)-4,4-difluoro-1-(methylsulfonyl)-2-pyrrolidinyl]carbonyl]amino]-N-[(4-fluoro-3-methylphenyl)methyl]-4,6,7,8,9,10-hexahydro-3-hydroxy-4-oxo-] the IC50 was under 10 nM.
`Cc1cc(CNC(=O)c2nc3n(c(=O)c2O)CC2CCC3(NC(=O)C(C)n3cncn3)CC2)ccc1F` (stereo not drawn) [Example 291, 7,10-Ethanopyrimido[1,2-a]azepine-2-carboxamide, N-[(4-fluoro-3-methylphenyl)methyl]-4,6,7,8,9,10-hexahydro-3-hydroxy-4-oxo-10-[[1-oxo-2-(1H-1,2,4-triazol-1-yl)propyl]amino]-] showed an IC50 of under 10 nM.
In the case of `Cc1cc(CNC(=O)c2nc3n(c(=O)c2O)CC2CCC3(NC(=O)c3cc(-c4cnn(C)c4)on3)CC2)ccc1F` [Example 292, 7,10-Ethanopyrimido[1,2-a]azepine-2-carboxamide, N-[(4-fluoro-3-methylphenyl)methyl]-4,6,7,8,9,10-hexahydro-3-hydroxy-10-[[[5-(1-methyl-1H-pyrazol-4-yl)-3-isoxazolyl]carbonyl]amino]-4-oxo-], the IC50 is reported as under 10 nM.
For `Cc1cc(CNC(=O)c2nc3n(c(=O)c2O)CC2CCC3(NS(=O)(=O)c3cn(C)c(=O)n(C)c3=O)CC2)ccc1F` [Example 293, 7,10-Ethanopyrimido[1,2-a]azepine-2-carboxamide, N-[(4-fluoro-3-methylphenyl)methyl]-4,6,7,8,9,10-hexahydro-3-hydroxy-4-oxo-10-[[(1,2,3,4-tetrahydro-1,3-dimethyl-2,4-dioxo-5-pyrimidinyl)sulfonyl]amino]-], the IC50 was under 10 nM.
